Like-named read-outs stand apart in the source and are kept apart here.
Key:
[1] = Permeability through the monolayer of Caco-2 cells; format: in vitro ADME; conditions: human; for Papp A→B at 2 h, 10 μM / Papp B→A at 2 h, 10 μM: 2 h at 37° C.; for efflux ratio at 2 h, 10 μM: read-out: efflux (Papp B-A/Papp A-B)
Source text: Assessment of permeability through the monolayer of Caco-2 cells allows to evaluate the ability of the candidate compounds to penetrate through biological membranes by active and passive transport.
Caco-2, the cells of the intestinal epithelium, had been cultured in transwell plate inserts with the filters (with pores of 0.4 μm, BD Falcon with High Density, #353495) for 21 days, and then the integrity of the monolayer were estimated with Lucifer Yellow dye (Sigma-Aldrich, USA) by standard protocol. When setting the A→B transfer, solutions of test substances were added in a buffer with pH 6.5 (Hanks solution, 10 mM HEPES, 15 mM glucose solution) with the concentration of 10 μM into the upper chamber; the lower chamber was filled with a buffer with pH 7.4 (Hanks solution, 10 mM HEPES, 15 mM glucose solution, 1% BSA). When setting B→A transfer, the upper chamber was filled with the buffer with pH 6.5, and solutions of the test substances were added in the buffer with pH 7.4 at the concentration of 10 μM in the lower chamber. Propranolol was used as a control substance (as it has high permeability).
We used gradient elution (1 mL/min flow rate). We determined the areas of peaks corresponding to the compounds. On the basis of peak areas in the calibration standards we determined the concentration of compound in the initial solution and in the samples from the wells of the upper and lower chambers.
Papp, permeability through the cell layer, was calculated using the following formula:
Papp=(C(t)*V)/(C(0)*t*Area), where
Papp is the effective constant of permeability, m/s V is the volume of solution (0.8 ml in A→B test, 0.2 ml in B→A test), ml Area is the surface area of the membrane (0.33 cm^2), cm^2 t is the time of incubation (7200 sec), sec C(0) is the concentration of the initial solution, μM C(t) is the concentration of the solution after 2 hours (the concentration in the sample from the well of the lower chamber in A→B test; the concentration in the sample from the well of the top chamber in B→A test), μM
The value was calculated with the following formula:
efflux=Papp B-A/Papp A-B, where
Papp A-B is the value of the permeability in the direct test (A→B); Papp B-A is the value of the permeability in the backward test in (B→A).

[2] = system: Z-138 (mantle cell lymphoma); assay: Antiproliferative activity, Z-138 cells (Alamar Blue); format: cell-based; conditions: Homo sapiens
Summary of the method: (§1)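 RPMI-1640/10% FBS/gentamicin, ~3*10^4 cells/well; cpd in DMSO (final <1%), 72 h, 37 °C, 5% CO2. Alamar Blue 14-16 h; fluor. Ex540/Em590. IC50 from 4-parameter logistic (Levenberg-Marquardt).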

[3] = system: Mino (mantle cell lymphoma); assay: Antiproliferative activity, Mino cells (Alamar Blue); format: cell-based; conditions: Homo sapiens
Summary of the method: as §1

[4] = molecular target: T1, recombinant Btk kinase enzyme (Homo sapiens, UniProt Q06187); assay: In vitro inhibition of Btk kinase activity (ADP-Glo); format: biochemical
T1 construct: purchased SignalChem B10-10H
T1 sequence (Q06187 whole entry): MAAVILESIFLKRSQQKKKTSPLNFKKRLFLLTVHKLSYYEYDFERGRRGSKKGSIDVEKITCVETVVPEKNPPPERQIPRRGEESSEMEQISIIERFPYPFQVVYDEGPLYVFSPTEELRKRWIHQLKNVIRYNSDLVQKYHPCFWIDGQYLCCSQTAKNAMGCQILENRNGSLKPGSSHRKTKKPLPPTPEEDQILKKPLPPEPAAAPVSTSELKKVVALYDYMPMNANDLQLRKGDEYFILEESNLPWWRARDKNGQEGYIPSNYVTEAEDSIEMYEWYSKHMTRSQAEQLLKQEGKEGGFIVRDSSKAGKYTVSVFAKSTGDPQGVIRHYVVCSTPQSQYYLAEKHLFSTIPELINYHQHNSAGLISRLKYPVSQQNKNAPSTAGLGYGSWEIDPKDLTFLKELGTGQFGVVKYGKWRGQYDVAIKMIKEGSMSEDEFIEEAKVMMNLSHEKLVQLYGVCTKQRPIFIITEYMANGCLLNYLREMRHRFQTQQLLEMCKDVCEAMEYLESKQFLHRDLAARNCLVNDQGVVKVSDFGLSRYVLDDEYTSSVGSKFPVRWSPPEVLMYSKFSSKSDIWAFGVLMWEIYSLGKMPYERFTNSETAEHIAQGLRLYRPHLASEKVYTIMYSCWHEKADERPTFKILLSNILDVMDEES
Experimental: To assess Btk kinase activity described herein, SignalChem kinase system was used. Btk kinase activity was determined in the reaction between recombinant Btk kinase enzyme (SignalChem #B10-10H) and Poly (4:1 Glu, Tyr) peptide substrate in the presence of the inhibitor.
Staurosporine (Abcam Biochemicals, ab146588) was used as a reference inhibitor and 0.1% DMSO in the reaction buffer—as a negative control. The solution of 0.5 mg/mL peptide substrate and 50 &M ATP in the same buffer were added; the solution was incubated for 180 minutes at 37° C. To detect the amount of ATP taken up during the kinase reaction, the equivalent amount of ADP (from the ADP Glo Detection Kit (Promega, #V9101)) was used according to the protocol. The reaction mixture was equilibrated to room temperature. 25 µL of ADP-Glo Reagent were added into each well; the plate was incubated for 40 minutes. 50 μL of Kinase Detection Reagent were added; the plate was incubated for 30 minutes. The luminescence was measured with multimode plate reader (Tecan Infinite M200Pro, Switzerland). IC50 values were calculated using Magellan 7.2 software (Tecan, Switzerland) approximating experimental points by four-parameter logistic model with the optimization by Levenberg-Marquardt.

[5] = system: HepG2 cells (hepatocellular carcinoma); assay: General cytotoxicity on HepG2 cells (CC50; therapeutic index CC50 HepG2/IC50 Mino); format: cell-based; conditions: therapeutic index
Summary of the method: (§2)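 Cells seeded at 2*10^4 per well in DMEM, compounds added after 24 h at 200 μM to 4 μM final and incubated 72 h. Viability read with Alamar Blue to derive CC50; therapeutic index is CC50 (HepG2) divided by IC50 (Mino).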

[6] = as above; format: cell-based; conditions: human, HepG2 cells (hepatocellular carcinoma), 72 hours, Alamar Blue
Summary of the method: as §2

[7] = system: DOHH2 (follicular lymphoma); assay: Antiproliferative activity, DOHH2 cells (Alamar Blue); format: cell-based; conditions: Homo sapiens, DOHH-2, Table 10, 72 h, average of several tests
Experimental: Antiproliferative activity of BTK inhibitors was measured in cell-based bioassay on B-cells cultures: Mino (mantle cell lymphoma, ATCC® CRL-3000™), Z-138 (mantle cell lymphoma, ATCC® CRL-3001™) and DOHH2 (follicular lymphoma, Creative Bioarray CSC-C0219) using cell viability reagent Alamar Blue (Invitrogen, #DAL 1100). Cells were cultured in 10% FB S-supplemented (HyClone, #SH3008803/Gibco, #16140-071) RPMI-1640 (PanEco, #S330p) for at least 1 passage after thawing, washed with PBS and passaged in 96-well culture plates (Corning, #3599) with growth medium with 10% FBS (HyClone, #SH3008803/Gibco, #16140-071) and antibiotic (50 μg/ml of gentamicin (Biolot, #1.3.16))≈3*10^4 cells in 50 μl of medium per well.
The compounds were dissolved in DMSO and diluted with the assay medium to final concentrations ranging from […]. 150 μl of each diluted compound were then added to each well (final concentration of DMSO was less than 1%) and incubated at 37° C. in an incubator under 5% of CO2 for 72 h. After incubation, 20 μl of Alamar Blue reagent (Invitrogen, #DAL1100) were added to each well. The plates were shaked on an orbital shaker (Biosan, Latvia) and then incubated for 14-16 hours at 37° C. in the incubator.
The number of living cells were estimated, measuring the fluorescence signal at the excitation wavelength (REx) of 540 nm and the emission wavelength (λEm) of 590 nm on a microplate reader (Tecan Infinite M200Pro, Switzerland).
For each compound, IC50 was calculated using Magellan 7.2 software (Tecan, Switzerland) approximating experimental points by four-parameter logistic model with the optimization by Levenberg-Marquardt.

[8] = Chemical stability in artificial gastric fluid (SGF without enzymes); conditions: 10 μM in SGF without enzymes, pH=1.4, 37° C.
[9] = Stability in human blood plasma; conditions: 10 μM in pooled human blood plasma, incubated 4 hours at 37° C.
[10] = Table 8, ADP-Glo, read-out: IC50 kinase BTK
[11] = Table 10, 72 h, average of several tests
[12] = Table 10, average of several tests

SMILES	IC50 [4, 10]	IC50 [2, 11]	IC50 [3, 11]	Amount of substance in the sample in % (chemical stability) [8]	CC50 (HepG2)/IC50 (Mino) ([5]; Table 10)	CC50 at 72 h [6, 12]	further results
C=CC(=O)N1CCC[C@@H](n2nc(-c3ccc(Oc4ccncc4)cc3)c3cncc(C#N)c32)C1 [BCD-BTK-123, (R)-1-(1-acryloylpiperidin-3-yl)-3-(4(pyridin-4-yloxy)phenyl)-1H-pyrazolo[4,3-c]pyridin-7-carbonitrile]							Papp A→B at 2 h, 10 μM [1]: 14.8 ×10⁻⁶ cm/s; Papp B→A at 2 h, 10 μM [1]: 7.4 ×10⁻⁶ cm/s; efflux ratio at 2 h, 10 μM [1]: 0.5; IC50 ([2]; Table 11, 72 h): 28 µM; IC50 ([3]; Table 11, 72 h): 13.2 µM; IC50 ([4]; Table 11, BTK kinase, read-out: IC50 kinase): 1.51 µM; CC50 (HepG2)/IC50 (Mino) ([5]; Table 11): 3.81; CC50 at 72 h ([6]; Table 11): 50.4 µM
C=CC(=O)N1CCC[C@@H](n2nc(-c3ccc(C(=O)Nc4cc(C(F)(F)CC)ccn4)cc3)c3cncc(Cl)c32)C1 [BCD-BTK-215, (R)-4-(1-(1-acryloylpiperidin-3-yl)-7-chloro-1H-pyrazolo[4,3-c]pyridin-3-yl)-N-(4-(1,1-difluoropropyl)pyridin-2-yl)benzamide]	0.0358 µM	8 µM	2.93 µM		>34.11	> 100 µM	IC50 [7]: > 100 µM
C=CC(=O)N1CCC[C@@H](n2nc(-c3ccc(C(=O)Nc4ncccc4F)cc3)c3cncc(Cl)c32)C1 [BCD-BTK-226, (R)-4-(1-(1-acryloylpiperidin-3-yl)-7-chloro-1H-pyrazolo[4,3-c]pyridin-3-yl)-N-(3-fluoropyridin-2-yl)benzamide]		7.24 µM	5.97 µM	100%	3.19	19 µM	Papp A→B at 2 h, 10 μM [1]: 12.1 ×10⁻⁶ cm/s; Papp B→A at 2 h, 10 μM [1]: 5.5 ×10⁻⁶ cm/s; efflux ratio at 2 h, 10 μM [1]: 0.45; IC50 [7]: 8.05 µM; Amount of substance in the sample, % (stability in human blood plasma) [9]: 84.5%
C=CC(=O)N1CCC[C@@H](n2nc(-c3ccc(C(=O)Nc4ccccn4)cc3)c3cncc(C#N)c32)C1 [BCD-BTK-228, (R)-4-(1-(1-acryloylpiperidin-3-yl)-7-cyano-1H-pyrazolo[4,3-c]pyridin-3-yl)-N-(pyridin-2-yl)benzamide]	0.0389 µM			99.9%			Papp A→B at 2 h, 10 μM [1]: 8 ×10⁻⁶ cm/s; Papp B→A at 2 h, 10 μM [1]: 1.4 ×10⁻⁶ cm/s; efflux ratio at 2 h, 10 μM [1]: 0.17; Amount of substance in the sample, % (stability in human blood plasma) [9]: 85.2%
C=CC(=O)N1CCC[C@@H](n2nc(-c3ccc(C(=O)Nc4ccc(F)cn4)cc3)c3cncc(F)c32)C1 [BCD-BTK-244, (R)-4-(1-(1-acryloylpiperidin-3-yl)-7-fluoro-1H-pyrazolo[4,3-c]pyridin-3-yl)-N-(5-fluoropyridin-2-yl)benzamide]	0.0557 µM			100%			
C=CC(=O)N1CCC[C@H](Cn2nc(-c3ccc(C(=O)Nc4ccccn4)cc3)c3cncc(Cl)c32)C1 [BCD-BTK-290, (S)-4-(1-((1-acryloylpiperidin-3-yl)methyl)-7-chloro-1H-pyrazolo[4,3-c]pyridin-3-yl)-N-(pyridin-2-yl)benzamide]	0.0196 µM			100%			Amount of substance in the sample, % (stability in human blood plasma) [9]: 100.0%

Further compounds by falling IC50 [4, 10], results first:

IC50 [4, 10]	IC50 [2, 11]	IC50 [3, 11]	Amount of substance in the sample in % (chemical stability) [8]	SMILES	CC50 (HepG2)/IC50 (Mino) ([5]; Table 10)	CC50 at 72 h [6, 12]	further results
0.0293 µM			99.6%	C=CC(=O)N1CCC[C@@H](n2nc(-c3ccc(C(=O)Nc4ccccn4)cc3)c3cncc(F)c32)C1 [BCD-BTK-243, (R)-4-(1-(1-acryloylpiperidin-3-yl)-7-fluoro-1H-pyrazolo[4,3-c]pyridin-3-yl)-N-(pyridin-2-yl)benzamide]			
0.0261 µM			100%	C=CC(=O)N1CC[C@H](n2nc(-c3ccc(C(=O)Nc4ccccn4)cc3)c3cncc(Cl)c32)C1 [BCD-BTK-273, (S)-4-(1-(1-acryloylpyrrolidin-3-yl)-7-chloro-1H-pyrazolo[4,3-c]pyridin-3-yl)-N-(pyridin-2-yl)benzamide]			
0.0153 µM	3.26 µM	2.38 µM		C=CC(=O)N1CCC[C@@H](n2nc(-c3ccc(C(=O)Nc4cccc(F)n4)cc3)c3c(N)ncc(Cl)c32)C1 [BCD-BTK-250, (R)-4-(1-(1-acryloylpiperidin-3-yl)-4-amino-7-chloro-1H-pyrazolo[4,3-c]pyridin-3-yl)-N-(6-fluoropyridin-2-yl)benzamide]	5.13	12.2 µM	
0.0112 µM	6.65 µM	2.95 µM		C=CC(=O)N1CCC[C@@H](n2nc(-c3ccc(C(=O)Nc4cc(C(F)(F)CCC)ccn4)cc3)c3c(N)ncc(Cl)c32)C1 [BCD-BTK-254, (R)-4-(1-(1-acryloylpiperidin-3-yl)-4-amino-7-chloro-1H-pyrazolo[4,3-c]pyridin-3-yl)-N-(4-(1,1-difluorobutyl)pyridin-2-yl)benzamide]	4.18	12.3 µM	
0.00628 µM				C=CC(=O)N1CCC[C@@H](n2nc(-c3ccc(Oc4ccncc4)cc3)c3c(N)ncc(C(N)=O)c32)C1 [BCD-BTK-135, (R)-1-(1-acryloylpiperidin-3-yl)-4-amino-3-(4-(pyridin-4-yloxy)phenyl)-1H-pyrazolo[4,3-c]pyridin-7-carboxamide]			

— patent publication US20190352276A1, “INHIBITORS OF BRUTON'S TYROSINE KINASE” (Joint Stock Company "Biocad", priority 2016, published 2019)
